From article PMC7875911 (Frontiers in Pharmacology, 2021)
Entries after “also recorded” stand apart in the source; their conditions may differ.

Tests used:
animal pain models = conditions: in vivo, cited from earlier work
Description: […]. Nav channels are structurally related to voltage-gated calcium (Cav) channels, Cav1 and Cav2. […] […].

mCav1.2 = assay: Whole-cell patch clamp, recombinant mCav1.2 in HEK293; format: cell-based, mouse; conditions: 10 µM
Protocol: (§1) Human embryonic kidney (HEK293T) cells containing the SV40 Large T-antigen were cultured at 37°C, 5% CO2 in Dulbecco’s Modified Eagle’s Medium (DMEM, Invitrogen Life Technologies, Australia), supplemented with 10% fetal bovine serum (FBS, Bovigen, Australia), 1% GlutaMAX and penicillin-streptomycin (Invitrogen, Australia). […]
(§2) Depolarization-activated Ca^2+ currents (ICa) in transfected HEK293 cells were recorded in the whole-cell patch clamp configuration. Data were recorded using a MultiClamp 700B amplifier, digitized with a DigiData1440 and controlled using Clampex10.7 software (Molecular Devices, United States). […]
(§3) Statistical significance (p < 0.05) was determined using unpaired Student’s t-test or 1-way ANOVA followed by a Tukey multiple comparison. […]
(§4) Numerous HVA Cav channel isoforms are present in rat DRG neurons. […] We transiently co-transfected the individual Cav channel α-subunits of interest together with β3 and α2δ1 subunits in HEK293 cells and measured whole-cell I Ca currents by patch clamp. […]

hCav2.3 = assay: Whole-cell patch clamp, recombinant hCav2.3 in HEK293; format: cell-based, human
Protocol: as §1, §2, §3, §4

[1] = system: TTXs-I Na in small-diameter IB4 ^− DRG neurons
Protocol: (§5) Spinal level L3–L5 DRG were removed and placed in ice-cold HEPES-buffered saline (HBS) composed of (in mM): 154 NaCl, 2.5 KCl, 1.8 CaCl2, 1.5 MgCl2, 10 HEPES, and 10 glucose (pH 7.4, 330 ± 5 mOsm). Iridectomy scissors were utilized to cut up ganglia before incubation at 37°C for 15 min in oxygenated HBS containing 5 mg ml^−1 collagenase type 2 (Worthington Biochemical Corp, Lakewood, NJ, United States) followed by 25 min in oxygenated HBS containing 1 mg ml^−1 papain (Worthington Biochemical Corp). […] After enzyme treatment, ganglia were placed in 3 ml of HBS following two room temperature HBS washes. Ganglia were then triturated through fire-polished Pasteur pipettes with decreasing bores to extract cells. Finally, the cells mixed in HBS were plated onto surface modified culture dishes (Corning Primaria™ easy grip). […] DRG cells were pre-treated with 1 μg ml^−1 Alexa Fluor 488-conjugated Bandeiraea simplicifolia IB4 (Invitrogen) for 5 min at room temperature and washed with HBS for 5 min before fluorescence was examined on the inverted microscope (Olympus, IX50) used for patch clamp recordings.
(§6) Cell size was determined from an eyepiece graticule. Whole-cell electrophysiology was conducted at room temperature (22–24°C) in culture dishes perfused with room temperature HBS. The intracellular pipette solution contained (mM): 120 CsCl, 10 HEPES, 10 EGTA, 2 CaCl2, 5 MgATP, 5 Na2GTP, 5 NaCl; pH 7.3 (CsOH); 285 ± 5 mos mol l^−1.
(§7) An EPC-9 patch-clamp amplifier and corresponding PULSE software from HEKA Electronik (Lambrecht/Pfalz, Germany) were used to make recordings. Currents were sampled at 50 kHz and recorded on a hard disk. Borosilicate glass from AM Systems, Everett, WA, United States were used for patch pipettes. The input resistance of the pipettes ranged from 2 to 4 MΩ. […] A built-in procedure of the HEKA amplifier compensated for the capacitive transient currents. A −P/6 protocol was utilized to subtract leak current online. I Ca was generated with the recording protocol which included a depolarization from a holding potential of −80 mV to 0 mV for 10 ms every 30 s. I Na was generated through a recording protocol which included a step depolarization from a holding potential of −80 mV to 0 mV for 10 ms at a frequency of 0.1 Hz. Cells were perfused with the test compound via a pressure driven perfusion system (AutoMate Scientific, United States).
(§8) All data analysis and graphs were generated in OriginPro (Origin Lab Corporation, United States). […] Activation and SSI curves were fit by the modified Boltzmann equation: I or G=1/(1+exp(Vm−V0.5/ka)) Where I is the current or G is the conductance, Vm is the pre-pulse potential, V 0.5 is the half-maximal activation potential and ka is the slope factor.
(§9) Statistical significance (p < 0.05) was determined using unpaired Student’s t-test or 1-way ANOVA followed by a Tukey multiple comparison. All data is presented as mean ± SEM (n), where n is individual cells.

[2] = system: TTXs-I Na in small-diameter IB4 ^± DRG neurons
Protocol: as §5, §6, §7, §8, §9

CSCC[C@@H]1NC(=O)[C@H](Cc2ccc(O)cc2)NC(=O)[C@H](CCCNC(=N)N)NC(=O)[C@@H](NC(=O)[C@@H](N)CC(=O)O)CSSC[C@@H]2NC(=O)[C@@H]3CSSC[C@@H](C(=O)N[C@@H](C)C(=O)N[C@@H](Cc4c[nH]c5ccccc45)C(=O)N[C@@H](CC(=O)O)C(=O)N[C@@H](Cc4ccccc4)C(=O)N[C@H](C(=O)N[C@@H](Cc4ccccc4)C(=O)N[C@H](C(=O)O)[C@@H](C)O)[C@@H](C)O)NC(=O)[C@H](Cc4ccc(O)cc4)NC(=O)[C@H](CCCCN)NC(=O)[C@H](CCSC)NC(=O)[C@H](CCCCN)NC(=O)[C@H](CCCNC(=N)N)NC(=O)[C@H](CCCCN)NC(=O)[C@H](CSSC[C@H](NC(=O)[C@H](CC(=O)O)NC(=O)CNC(=O)[C@H](Cc4ccccc4)NC1=O)C(=O)N[C@@H](CCC(=O)O)C(=O)N[C@@H](CCCCN)C(=O)N[C@@H](CC(=O)O)C(=O)N[C@@H](CCC(=O)O)C(=O)N[C@@H](CC(=O)O)C(=O)N3)NC(=O)CNC(=O)[C@H](CC(C)C)NC(=O)[C@H](Cc1c[nH]cn1)NC(=O)[C@H](CCCCN)NC2=O [Pn3a, µ-Theraphotoxin-Pn3a]
analgesia/anti-allodynia on co-administration with opioids (in words) (animal pain models; 1 mg/kg): significant analgesia/anti-allodynia
analgesia in various animal pain models (in words) (animal pain models): fails to produce analgesia
effect in rodent models of acute nociception or inflammatory pain (in words) (animal pain models): ineffective
inhibition of Cav1.2-mediated current (mCav1.2): 70.3 ± 1.5%
effect on Cav2.3-mediated current (in words) (hCav2.3): no inhibition; also recorded: negligible effects; also recorded: minimally affected
inhibition of Cav2.3-mediated current (hCav2.3; 10 µM): 2.2 ± 0.9%
I Na remaining after application [1]: ~50%
potency loss versus reported recombinant hNav1.7 [1]: ~250 fold
reversibility on washout of TTXs-I Na inhibition [1]: fully reversible upon washout
I Na remaining after application [2]: ~50%
reversibility on washout of TTXs-I Na inhibition [2]: fully reversible upon washout
